Some test systems named below: DMS-273; HL-60; LXFL 529; M19-MEL; NCI-H226; NCI-H23; RXF 393; SNB-78; SR; UACC-257; XF498; Hs-578T; MCF7; MDA-MB-231; MDA-N; NCI/ADR-RES; PC-3; T47D; CAKI-1; HOP-18.
Holding throughout (assay): growth of human tumour cells (NCI), 48 h

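All cell lines were grown in 96-well plates and treated with compound for 48 hours. GI50: concentration for 50% inhibition of growth.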 Active and inactive are the calls of the source. Cut-off read from the data, not from the text of the source: active = GI50 up to about 1.1 µM and inactive = higher.

Take `CN(CCO)/N=N/c1[nH]cnc1C(N)=O`: the GI50 with DMS-273 was 49.9 µM (inactive); with HL-60, 79.3 µM (inactive); with LXFL 529 it was > 100 µM (inactive); in the assay with M19-MEL it was > 100 µM (inactive); in the assay on NCI-H226 it was > 100 µM (inactive); in the assay on NCI-H23 it was > 100 µM (inactive). Moreover, the GI50 in the assay on RXF 393 was > 100 µM (inactive); in the assay with SNB-78 it was > 100 µM (inactive); in the assay with SR, 39.7 µM (inactive); in the assay on UACC-257, 99.8 µM (inactive); in the assay with XF498, 82.2 µM (inactive).
On to `CC(=O)Nc1ccc(Sc2nnc(NC(C)=O)s2)cc1`, for which the GI50 in the assay with HL-60, in the assay on Hs-578T, in the assay with MCF7, in the assay on MDA-MB-231, in the assay with MDA-N and with NCI/ADR-RES was > 100 µM (inactive) each time. Moreover, the GI50 in the assay on PC-3, in the assay with SR, in the assay on T47D and in the assay on UACC-257 was > 100 µM (inactive) in each case.
As for `CN(C)CCCNC(=O)N/N=C\c1cccc2ccccc12`, the GI50 in the assay on HL-60, with Hs-578T, in the assay with MCF7, in the assay with MDA-MB-231, in the assay on MDA-N and in the assay on NCI/ADR-RES was > 10 µM (inactive) throughout. The GI50 in the assay with PC-3, in the assay with RXF 393, in the assay on SR and with T47D was > 10 µM (inactive) each time.
On to `COc1cc(C2c3cc4c(cc3[C@@H](Nc3ccccc3)C3COC(=O)[C@H]23)OCO4)cc(OC)c1O` (stereo not given in full), for which the GI50 is 0.134 µM (active) with CAKI-1; 0.142 µM (active) in the assay on DMS-273; 0.14 µM (active) with HL-60; 0.853 µM (active) in the assay on HOP-18; 1.55 µM (inactive) with M19-MEL; 0.0715 µM (active) with MCF7. The GI50 was 0.28 µM (active) with NCI-H226; 0.238 µM (active) with NCI-H23; 2.07 µM (inactive) in the assay on NCI/ADR-RES; 1.73 µM (inactive) with RXF 393; 2.37 µM (inactive) in the assay on SNB-78; 0.615 µM (active) with UACC-257. Besides, the GI50 in the assay on XF498 is 1.03 µM (active).
For `N#CCCN(CCC#N)c1ccc(/C=C(/NC(=O)Nc2ccccc2Cl)NC(=O)c2cc([N+](=O)[O-])ccc2Cl)cc1`, the GI50 in the assay with CAKI-1, with DMS-273, in the assay on HOP-18, in the assay on LXFL 529, in the assay with M19-MEL and in the assay with NCI-H226 was > 100 µM (inactive) throughout. For the same compound, the GI50 was > 100 µM (inactive) in the assay on RXF 393, > 100 µM (inactive) in the assay with SNB-78, 42.4 µM (inactive) in the assay on SR and > 100 µM (inactive) in the assay on XF498.
As for `C=C(C)C1Cc2c(c3ccccc3n(C)c2=O)O1` (stereo not given), the GI50 in the assay with CAKI-1, in the assay with HL-60, in the assay on HOP-18, in the assay on LXFL 529, in the assay on M19-MEL and in the assay with NCI-H226 was > 100 µM (inactive) each time. In addition, the GI50 in the assay with NCI-H23 and in the assay on SNB-78 was > 100 µM (inactive) in each case.
Take `Brc1ccc2c(c1)[C@H]1CCc3c([nH]c4ccccc34)[C@H]1N2`: the GI50 in the assay on CAKI-1 is 10.2 µM (inactive); with Hs-578T, 25.4 µM (inactive); in the assay on MCF7 it was 3.42 µM (inactive); in the assay with MDA-MB-231, 1.6 µM (inactive); in the assay with MDA-N, 14.9 µM (inactive); with NCI-H226, 12.1 µM (inactive). The GI50 in the assay on NCI-H23 is 12.4 µM (inactive); in the assay on NCI/ADR-RES it was 14.2 µM (inactive); in the assay on PC-3, 5.9 µM (inactive); in the assay on RXF 393, 12 µM (inactive); with SR, 0.889 µM (active); in the assay with T47D, 3.11 µM (inactive). In addition, in the assay on UACC-257, the GI50 is 12.8 µM (inactive).

(Values after ChEMBL document CHEMBL1201862, “PubChem BioAssay data set” (2004).)
